Entries after “also recorded” stand apart in the source; their conditions may differ.
What was measured:
[1] = test system: established diabetic MLDS-mice; assay: Reversal of well established diabetes in MLDS-mice by daily GABA injection; format: in vivo
Procedure: To investigate if GABA can reverse diabetes, daily GABA injection was started in well established diabetes in MLDS-mice (blood glucose>30 mM).
(§1) The techniques used for the in vivo and in vitro studies in this embodiment of the disclosure are also described. CD1 mice (Charles River Laboratories, St Constant, Canada), NOD mice and transgenic TCR NOD mice (Jackson Laboratory, USA) were housed under a controlled temperature and a 12-h light/12-h dark cycle in the St. Michael's Hospital Animal facility with free access to food (normal rodent chow) and water, except where noted. All procedures were conducted according to protocols and guidelines approved by the Canadian Council of Animal Care and the St. Michael's Hospital Animal Care committee. Mice were treated with GABA by daily intraperitoneal (i.p.) injection of 20·g GABA per mouse to reach ˜200 μM circulation concentration and PBS as control. The daily treatment is continuously conducted during 60-day experimental period. One wk after the GABA and PBS treatment, diabetes was induced in both groups by i.p.-injection of low-dose streptozotocin (STZ, Sigma Chemical Co., St. Louis, Mo. 40 mg/kg body weight) for 5 consecutive days. The development of hyperglycemia was monitored by measuring blood glucose from the tail vein every third day following STZ injections using an Ascensia ELITE® XL glucose meter. For some studies, overtly diabetic mice induced by STZ and without GABA treatment were divided into two groups: one group started receiving daily i.p. injection of 20·g GABA whereas other group received only PBS. The treatment was continued for 75 days. The handling of the NOD mice were similar to those CD1 mice except the STZ injection. The NOD mice have a susceptibility to spontaneous development of autoimmune T1D. The TCR transgenic 8.3-NOD mice have a markedly accelerated disease (J. Vergdaguer et al, 1997 J Exp Med. 186(10):1663-76).
(§2) Groups of mice were subject to a glucose tolerance test (IPGTT) before treatment (day 0), one, three, and five weeks after administration and the day prior termination. For IPGTT, mice were fasted overnight for 15 h, and were given 1.5 g glucose/kg body weight via i.p.-injection. Blood was drawn from the tail vein and blood glucose was measured at 0, 10, 20, 30, 60, 90, and 120 min after glucose administration.
Mice were housed in metabolic cages prior to initiation of GABA and PBS treatment and before termination of experiments. Food intake, water consumption and urine output were measured. To determine the fat distribution, three intra-abdominal fat pads retroperitoneal, mesenteric and epididymal were dissected and weighed. Subcutaneous fat was also analyzed.
(§3) Blood samples (200 μL) were collected from the saphenous vein at time as indicated and at the termination of experiments via cardiac puncture (1 mL) for measurement of insulin, glucagon, and cytokine profiles. Serum was collected by centrifugation and stored at −80° C. until use. Insulin and glucagon concentration in serum samples were determined using insulin ELISA kit (Crystal Chem., Chicago, Ill., USA) and glucagon RIA kit (Linco Research, St. Louis, Miss., USA). Circulating GLP-1 levels were determined using GLP-1 RIA kit (Linco Research, St. Louis, Miss., USA). Cytokine concentration in the serum samples was determined using kit Multiplex Bead-based Cytokine assay (BioRed, Canada).
Pancreas harvesting and tissue processing were performed as described previously (Wang Q, Brubaker P L 2002 Diabetologia. 45(9):1263-73). Briefly, after cardiac puncture under anesthesia, a midlaparotomy was performed and the pancreas was immediately dissected from surrounding tissues, cleared of fat and lymph nodes, blotted, weighed, and placed in a formaldehyde-acetic acid solution. The procedure from completion of cardiac puncture to placement of tissue in fixative was completed within 5 min. After overnight fixation, the pancreas was washed in cold running water, cut into 10-12 segments. […]

NOD mice = assay: Prevention of diabetes in non-obese diabetic (NOD) mice, GABA daily injections from age of 5 week; format: in vivo
Procedure: To examine the role of GABA in the development of diabetes in NOD mice, GABA daily injections were started at age of 5 week and PBS injections as control. Islet immunohistochemistry was performed at their age of 13 wks before the onset of obvious diabetic hyperglucemia. […] It is noted that beyond this age, the blood glucose levels of saline-treated NOD mice were out of the scale of the measurement (red arrows FIG. 6F). These non-treated NOD mice also developed impaired glucose tolerance (FIG. 6F, 6G), associated with reduced circulating C-peptide (FIG. 6H) and elevated circulating glucagon levels (FIG. 6I).
as §1, §2, §3
Following dewaxing, […] as described previously (Wang Q, Brubaker P L 2002 Diabetologia 45:1263-1273), endogenous peroxidase activity was quenched by incubating sections in 0.3% H2O2 in water for 30 min and antigen retrieval was performed by heating slides in 10 mM sodium citrate buffer, pH 6.0, at ˜70° C. for 30 min. […]

[2] = day 74 after GABA daily administration
[3] = age of 13 wks, GABA-treated NOD mice

NCCCC(=O)O [GABA, gamma-aminobutyric acid]
glucose tolerance (IPGTT) at 7th days after GABA injections ([1]; 7th day): significantly improved; also recorded: improved glucose tolerance
blood glucose / diabetic hyperglycemia, course ([1]; daily GABA started at blood glucose>30 mM): started to decline only a few days after GABA injection; also recorded: reverses MLDS-induced diabetic hyperglycemia; also recorded: completely reversed diabetic hyperglycemia
blood glucose levels at day 74 [1, 2]: closed to the normal range
glucose tolerance at day 74 [1, 2]: almost identical to control normal mice; also recorded: improved glucose tolerance
metabolic conditions (metabolic studies) ([1]; established diabetic MLDS mice): normalized metabolic conditions; also recorded: normalized metabolic status
glucose tolerance at all time points examined ([1]; including two weeks and eight weeks after GABA injections): steadily improves glucose tolerance
islet morphology ([1]; islet histochemistry): almost normal islet morphology
lymphocytes in the islets ([1]; islet histochemistry): few lymphocytes were seen
alpha-cell mass ([1]; vs non-treated MLDS-mice): reduced alpha-cell mass
beta-cell mass ([1]; vs non-treated MLDS-mice): significant enlarged beta-cell mass; also recorded: significantly restored beta-cell mass
circulating glucagon ([1]; vs non-treated MLDS-mice): reduced circulating glucagon levels
circulating insulin ([1]; vs non-treated MLDS-mice): elevated circulating insulin
ratio of insulin to glucagon ([1]; vs non-treated MLDS-mice): largely increased ratio of insulin to glucagon; also recorded: significantly increased
beta-cell apoptosis (anti-caspase-3 islet histochemistry) (NOD mice; GABA-treated NOD mice): reduced
circulating C-peptide (NOD mice; GABA-treated NOD mice): close to those measured at their earlier age; also recorded: significantly increased circulating C-peptide
circulating glucagon levels (NOD mice; GABA-treated NOD mice): close to those measured at their earlier age; also recorded: reduced glucagon levels
glucose tolerance (NOD mice; GABA-treated NOD mice): close to normal glucose tolerance
ratio of insulin to glucagon (NOD mice; GABA-treated NOD mice): significantly elevated the ratio of insulin to glucagon
onset of diabetes / development of severe diabetic hyperglycemia (NOD mice; NOD mice): significantly prevented development of severe diabetic hyperglycemia; also recorded: prevents onset of diabetes
severe insulitis (NOD mice; age of 13 wks): no severe insulitis was seen
islets areas occupied by lymphocytes in islets with relatively severe insulitis (NOD mice; [3]): 20-30%
islets with normal morphology without lymphocyte infiltration (NOD mice; [3]): > 70%
islets with relatively severe insulitis (NOD mice; [3]): about 15%
blood glucose levels (NOD mice; at 18 wks of age, vs saline-treated NOD mice): kept lower blood glucose levels

Reference: patent US9463174B2, “Pharmaceutical composition for the treatment of type-1 diabetes” (priority 2008, dated 2016)
